Source: EPA's CvTdb concentration-time database
Where “and” joins values, the source holds several entries; their conditions need not be identical. Equal values may be shown once.

Legend:
Test in all cases: concentration in plasma after dosing
[1] = system: Rat; settings: dosed: Tamoxifen citrate, 0.3 mg/kg, iv, Female, Sprague-Dawley
[2] = system: Rat; settings: dosed: Tamoxifen citrate, 0.3 mg/kg, iv, Male, Sprague-Dawley
[3] = system: Rat; settings: dosed: Tamoxifen citrate, 0.3 mg/kg, iv, Female, Sprague-Dawley; remark: listed apart in the source
[4] = system: Rat; settings: dosed: Tamoxifen citrate, 0.3 mg/kg, iv, Male, Sprague-Dawley; remark: listed apart in the source
[5] = system: Rat; settings: dosed: Tamoxifen citrate, 0.3 mg/kg, iv, Male, Sprague-Dawley; remark: listed apart in the source
[6] = system: Rat; settings: dosed: Tamoxifen citrate, 0.3 mg/kg, iv, Female, Sprague-Dawley; remark: listed apart in the source
[7] = system: Rat; settings: dosed: Tamoxifen citrate, 0.3 mg/kg, iv, Sprague-Dawley
[8] = system: Rat; settings: dosed: Tamoxifen citrate, 0.3 mg/kg, iv, Male, Sprague-Dawley; remark: listed apart in the source
[9] = system: Rat; settings: dosed: Tamoxifen citrate, 0.3 mg/kg, iv, Female, Sprague-Dawley; remark: listed apart in the source

CC/C(=C(\c1ccccc1)c1ccc(OCCN(C)C)cc1)c1ccccc1 [Tamoxifen, free base]
concentration in plasma [ng/mL]
Settings | [1] | [2] | [3] | [4] | [5] | [6] | [8] | [9]
0.25 h | 9.8 | – | 10.6 | 23.4 | 17.9 | – | 27.8 | 19.2
0.5 h | 7.72 | – | 11.7 | 17.5 | 14 | – | 21.3 | 16.9
1 h | 6.48 | 5.39 | 7.86 | 11.1 | 9.45 | 11.8 | 12.5 | 12.4
2 h | 6.85 | 5.6 | 6.98 | 6.63 | 5.39 | 6.28 | 7.97 | 8.82
4 h | 5.08 | 5.43 | 4.36 | 4.12 | 13 | 4.6 | 4.45 | 4.36
8 h | – | 4.84 | – | – | – | – | – | –

concentration in plasma, [7]
Settings | 0.25 h | 0.5 h | 1 h | 2 h | 4 h | 8 h
Female | 7.64 ng/mL and 17.2 ng/mL | 7.57 ng/mL and 13.4 ng/mL | 5.28 ng/mL | – | – | –
Male | 7.83 ng/mL | 8.42 ng/mL | 5.43 ng/mL | 4.66 ng/mL | 5.32 ng/mL | 5.19 ng/mL
